From US5968946A, “Heterocyclic derivatives useful in treating central nervous system disorders” (Ortho-McNeil Pharmaceutical, Inc., priority 1998, dated 1999) come the findings set out here.

Where two headings read alike, the source gives them in different places. Where only a bound is given, the exact number is not on record here.

For test [1], the system named is metrazol-induced convulsions. In words: Suppression of metrazol-induced convulsions (antimetrazol). Format: in vivo, mouse (male CD1). Particulars: Mus musculus, 0.5 h; PO; clonic convulsions, 30 min observation.
Test [2] has as its system metrazol-induced convulsions. The description is as above. Conditions: Mus musculus, 0.5 h; IP; clonic convulsions, 30 min observation. It counts as in vivo, mouse (male CD1). The protocol:
Selected compounds of the invention were tested for their ability to reduce metrazol-induced convulsions in mice (Swinyard, E. A. J. Am. Pharm Assoc. 1949, 38, 201). Male CD1 mice, were fasted at least 16 hours, were divided into equal groups and test compounds or vehicle were administered parenterally. Water was not withheld except during the period of observations. At the time of suspected peak activity, anti-pentylenetetrazol (anti-metrazol) activity was evaluated by the subcutaneous administration of the CD90 dose of metrazol (the dose of metrazol was determined from the dose-response curve producing clonic convulsions in 90% of animals that received the corresponding vehicle for this experiment). Metrazol was dissolved in 0.9% sodium chloride solution, and its dose volume was 10 ml/kg. Animals were housed individually for observation of clonic convulsions, tonic convulsions and death for a period of 30 min. Test compounds that blocked the clonic seizure component of the convulsion in at least 50% of the animals were considered active. The biological assay was considered to be valid if the effects of a known anticonvulsant (positive control) were detected, within the same experiment. Activity was reported as percent reduction of clonic convulsions from the vehicle group. The ED50 values of active compounds were calculated by the method of probits (Finney, D. J. 1971. Probit Analysis. London: Cambridge University Press) and are listed in Tables 1.

A further test concerns motor coordination. Nature of the test: Horizontal screen test for motor coordination. It counts as in vivo, mouse (male CD1). Particulars: Mus musculus, CD1 mice.
In test [3] the test system is anxiety in the adult male rat. In words: Suppression of anxiety in the adult male rat (Vogel anticonflict test). Format: in vivo. Conditions: read-out: Anticonflict MED. The method, then:
The anxiolytic activity of selected compounds of the invention was assessed by determining their ability to encourage behavior that had been suppressed by punishment (Vogel, J. R. et al. Psychopharmacology 1971, 21, 1). Male rats were deprived of water for 48 hours and were deprived of food for 24 hours prior to testing. After the first 24 hours of water deprivation, they were placed in the conflict chamber for a training period; wherein, they were allowed 200 unpunished licks from a bottle containing tap water. The experiment was run the next day. At the expected time of peak activity, the animals were placed in the chamber and allowed access to tap water. […] Their first lick initiates a 3-min test session. Subsequently,every 20th lick was punished by a 0.2-s shock delivered via the stainless-steel drinking-tube. Vehicle-treated control animals generally were willing to accept a median number of 3 to 8 shocks per test session. […] The Wilcoxon rank-sum test (Mann-WhitneyU-test) was used to test for an increase (p<0.05, 1-tailed) in the median number of shocks in drug-treated groups, compared to a concurrently run vehicle-treated group. The biological assay is considered to be valid if the effects of a known anxiolytic (positive control) are detected, within the same experiment. A compound was considered active if there is a significant difference in the median number of shocks tolerated between the drug-treated group and the control group. The MED was defined as the minimum dose of the drug-treatment as analyzed using the Wilcoxon rank-sum test (SAS; Statistical Analysis System, version 5.16). If the MED value is greater than 10, an active dose of the compound being tested had not been determined.

For test [4], the target named is benzodiazepine site of the GABA-A receptor. Nature of the test: Benzodiazepine receptor binding assay (inhibition of 3H-flunitrazepam binding). Conditions: read-out: 3H-Flunitrazepam IC50; ca. 3 nM 3H-flunitrazepam, 10-20 min at 25° C.

For `O=C1CCn2c(nc3cccnc32)C1C(=O)Nc1ccccc1` (stereo not shown) [CP #2, 8,9-Dihydro-7-keto-N-phenyldipyrido [1,2-a:3',2'-d] imidazole-6-carboxamide], the ED50 was > 30 mg/kg in test [1], > 10 mg/kg in test [2] and > 10 mg/kg in the test on motor coordination (IP). Also, the minimal effective dose in test [3] (IP) is > 10 mg/kg; in test [3] (PO) it was > 30 mg/kg. Also, the IC50 in test [4] is > 4350 nM.

In the case of `O=C1CCN2C(=C1C(=O)Nc1c(F)cc(F)cc1F)Nc1cccnc12` [CP #4], the ED50 in test [1] was > 30 mg/kg; in test [2], ~10 mg/kg; in the test on motor coordination (IP), ~10 mg/kg. Moreover, the minimal effective dose is > 10 mg/kg in test [3] (IP) and > 30 mg/kg in test [3] (PO). In addition, in test [4], the IC50 came out at 1960 nM.

As for `O=C1CCn2c(nc3ncccc32)C1C(=O)Nc1ccccc1F` (stereo not shown) [CP #5, 6,7-dihydro-8-keto-N-(2-fluorophenyl)dipyrido[1,2-a:2',3'-d]imidazole-9-carboxamide], the results for the ED50 (in test [1]; in test [2]; in the test on motor coordination (IP)) were 10 mg/kg, 1 mg/kg and 3 mg/kg, respectively. In addition, the minimal effective dose is 10 mg/kg in test [3] (IP) and > 30 mg/kg in test [3] (PO). Moreover, the IC50 in test [4] amounted to 3.5 nM.

As for `O=C1CCn2c(nc3ncccc32)C1C(=O)Nc1ccccc1` (stereo not shown) [CP #6, 6,7-dihydro-8-keto-N-phenyldipyrido[1,2-a:2',3'-d]imidazole-9-carboxamide], the ED50 was < 30 mg/kg in test [1], 3 mg/kg in test [2] and 3 mg/kg in the test with motor coordination (IP). The minimal effective dose in test [3] (IP) was > 10 mg/kg; in test [3] (PO), 30 mg/kg. In addition, the IC50 in test [4] worked out at 8.3 nM.

`O=C1CCn2c(nc3ncccc32)C1C(=O)Nc1ccncc1` (stereo not shown) [CP #7, 6,7-dihydro-8-keto-N-(4-pyridyl)dipyrido[1,2-a:2',3'-d]imidazole-9-carboxamide]: the ED50 in test [1] was > 10 mg/kg; in test [2] it was > 30 mg/kg; in the test on motor coordination (PO), > 10 mg/kg. Also, the minimal effective dose in test [3] (IP) came out at 30 mg/kg; in test [3] (PO), 10 mg/kg. Further, in test [4], the IC50 came out at 619 nM.

On to `O=C1CCn2c(nc3ncccc32)C1C(=O)Nc1c(F)cc(F)cc1F` (stereo not shown) [CP #8, 6,7-dihydro-8-keto-N-(2,4,6-trifluorophenyl)dipyrido[1,2-a:2',3'-d]imidazole-9-carboxamide], for which the values for the 50% effective dose (ED50) (in test [1]; in test [2]; with motor coordination (IP)) were > 30 mg/kg, 10 mg/kg and > 30 mg/kg, respectively. For the same compound, the minimal effective dose in test [3] (IP) is > 10 mg/kg; in test [3] (PO), > 30 mg/kg. The IC50 in test [4] is 220 nM.

Turning to `O=C1CCn2c(nc3ncccc32)C1C(=O)Nc1c(F)cccc1F` (stereo not shown) [CP #9, 6,7-dihydro-8-keto-N-(2,6-difluorophenyl)dipyrido[1,2-a:2',3'-d]imidazole-9-carboxamide], the ED50 was ~30 mg/kg in test [1], ~30 mg/kg in test [2] and ~10 mg/kg in the test with motor coordination (IP). The minimal effective dose in test [3] (IP) and in test [3] (PO) was > 10 mg/kg throughout. In addition, in test [4], the IC50 amounted to 30.1 nM.

As to `O=C1CCN2C(=C1C(=O)Nc1ccccc1F)Nc1cccnc12` [compound 1], the ED50 in test [1] is > 30 mg/kg; in test [2], 10 mg/kg; with motor coordination (IP), 10 mg/kg. Further, the minimal effective dose in test [3] (IP) was > 10 mg/kg; in test [3] (PO) it was > 30 mg/kg.

In the case of `O=C1CCN2C(=C1C(=O)Nc1ccncc1)Nc1cccnc12` [compound 3], the ED50 was > 30 mg/kg in test [1], > 10 mg/kg in test [2] and > 10 mg/kg with motor coordination (IP). The minimal effective dose is > 10 mg/kg in test [3] (IP) and > 30 mg/kg in test [3] (PO).

In the case of `O=C1CCN2C(=C1C(=O)Nc1c(F)cccc1F)Nc1cnccc12` [compound 10], the ED50 was > 30 mg/kg in test [1] and > 10 mg/kg in test [2]. For the same compound, the minimal effective dose in test [3] (IP) is > 10 mg/kg; in test [3] (PO), ~3 mg/kg. Moreover, the IC50 in test [4] was found to be 17.7 nM.

Regarding `COCCN1C2=C(C(=O)Nc3ccccc3F)C(=O)CCN2c2ncccc21` [compound 11], the minimal effective dose in test [3] (PO) is > 10 mg/kg. Besides, the IC50 in test [4] was 285 nM.

Regarding `CN1C2=C(C(=O)Nc3ccccc3F)C(=O)CCN2c2ncccc21` [compound 12], the minimal effective dose in test [3] (PO) is > 10 mg/kg. In addition, the IC50 in test [4] was > 312 nM.
